Experiment: mn = molality of the nth substance listed, in mol/kg
Details: 101 kPa, Liquid; for viscosity: Capillary tube (Ostwald / Ubbelohde) method

O=C([O-])[C@H](O)[C@@H](O)C(=O)[O-].[K+].[K+] [dipotassium L-tartrate] + O
Details | mass density [kg/m3] | speed of sound [m/s] | viscosity [mPa·s]
298.15 K, m1 = 0.0222 | – | – | 0.879
298.15 K, m1 = 0.0312 | – | – | 0.892
298.15 K, m1 = 0.0398 | 1002.88 | 1502.5 | –
298.15 K, m1 = 0.0498 | 1004.29 | 1503.7 | –
298.15 K, m1 = 0.0516 | – | – | 0.902
298.15 K, m1 = 0.0615 | 1005.99 | 1505.4 | –
298.15 K, m1 = 0.0697 | 1007.18 | 1506.5 | –
298.15 K, m1 = 0.073 | – | – | 0.911
298.15 K, m1 = 0.0797 | 1008.56 | 1508.8 | –
298.15 K, m1 = 0.0897 | 1010.01 | 1509.5 | –
298.15 K, m1 = 0.0909 | – | – | 0.917
298.15 K, m1 = 0.0996 | 1011.42 | 1510.3 | –
298.15 K, m1 = 0.1822 | – | – | 0.948
298.15 K, m1 = 0.2842 | – | – | 0.985
298.15 K, m1 = 0.3 | 1039.02 | 1535.7 | –
298.15 K, m1 = 0.3843 | – | – | 1.012
298.15 K, m1 = 0.4639 | – | – | 1.04
298.15 K, m1 = 0.4985 | 1064.81 | 1559.5 | –
298.15 K, m1 = 0.6883 | – | – | 1.125
298.15 K, m1 = 0.6922 | 1088.8 | 1582.2 | –
298.15 K, m1 = 0.8934 | 1112.36 | 1605.2 | –
298.15 K, m1 = 1.098 | – | – | 1.294
298.15 K, m1 = 1.284 | 1155.12 | 1648.3 | –
298.15 K, m1 = 1.468 | – | – | 1.474
298.15 K, m1 = 1.579 | 1185.12 | 1680.5 | –
298.15 K, m1 = 1.878 | – | – | 1.71
298.15 K, m1 = 1.965 | 1221.2 | 1718.3 | –
298.15 K, m1 = 2.443 | 1262.59 | 1764 | –
298.15 K, m1 = 2.602 | – | – | 2.243
298.15 K, m1 = 2.923 | 1299.6 | 1805.2 | –
298.15 K, m1 = 3.391 | 1331.8 | 1841.5 | –
298.15 K, m1 = 3.405 | – | – | 3.301
298.15 K, m1 = 3.858 | 1362.45 | 1876.2 | –
298.15 K, m1 = 4.077 | – | – | 4.296
298.15 K, m1 = 4.324 | 1389.87 | 1907 | –
298.15 K, m1 = 4.785 | 1414.66 | 1935.4 | –
298.15 K, m1 = 5.188 | – | – | 6.378
298.15 K, m1 = 5.238 | 1437.73 | 1960.6 | –
298.15 K, m1 = 5.378 | – | – | 7.066
298.15 K, m1 = 5.692 | 1459.07 | 1984.8 | –
308.15 K, m1 = 0.0222 | – | – | 0.718
308.15 K, m1 = 0.0312 | – | – | 0.723
308.15 K, m1 = 0.0516 | – | – | 0.731
308.15 K, m1 = 0.073 | – | – | 0.737
308.15 K, m1 = 0.0909 | – | – | 0.75
308.15 K, m1 = 0.1822 | – | – | 0.773
308.15 K, m1 = 0.2842 | – | – | 0.799
308.15 K, m1 = 0.3843 | – | – | 0.821
308.15 K, m1 = 0.4639 | – | – | 0.847

— the NIST ThermoML archive (doi:10.1021/je700751a)
